Results on 20 compounds are retold here after US8859573B2, “Pyrimidinone and pyridinone compounds for use in the treatment of diseases or conditions mediated by Lp-PLA2” (Glaxo Group Limited, priority 2010, dated 2014).

Experiment [1] has as its target T1, recombinant human Lp-PLA2 (Homo sapiens, UniProt Q13093).
T1 sequence (Q13093 22-441): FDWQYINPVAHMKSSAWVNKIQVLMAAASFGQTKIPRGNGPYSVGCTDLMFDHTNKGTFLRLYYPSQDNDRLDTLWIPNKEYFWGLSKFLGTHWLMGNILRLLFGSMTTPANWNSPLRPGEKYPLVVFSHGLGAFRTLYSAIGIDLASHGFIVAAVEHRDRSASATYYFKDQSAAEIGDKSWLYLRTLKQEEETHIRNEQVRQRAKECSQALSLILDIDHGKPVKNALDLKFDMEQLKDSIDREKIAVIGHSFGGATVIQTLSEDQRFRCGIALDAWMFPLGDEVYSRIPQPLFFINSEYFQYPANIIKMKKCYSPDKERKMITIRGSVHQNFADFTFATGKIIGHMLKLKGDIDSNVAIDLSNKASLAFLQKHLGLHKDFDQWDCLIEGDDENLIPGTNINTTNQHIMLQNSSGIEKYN
Kind of experiment: Recombinant human Lp-PLA2 assay (rhLp-PLA2, PED6 assay). Format: biochemical. The settings on record: upper limit for pIC50 in this assay is 9.3. The text has this:
(1) Recombinant Human Lp-PLA2 Assay (rhLp-PLA2) (Also Referred to as “PED6” Assay)
N-((6-(2,4-dinitrophenyl)amino)-hexanoyl)-2-(4,4-difluoro-5,7-dimethyl-4-bora-3a,4a-diaza-s-indacene-3-pentanoyl)-1-hexadecanoyl-sn-glycero-3-phosphoethanolamine, triethylammonium salt (PED6) is a commercially available fluorescently-labelled phospholipid, which is commercially available from Molecular Probes. There is a quenching para-nitro phenyl (PNP) group in the sn3 position and a Bodipy fluorescein (FL) group in the sn2 position. Upon cleavage with Lp-PLA2, the Bodipy F1 group is liberated and then may result in an increase in fluorescence. Inhibitors of Lp-PLA2 therefore prevent this cleavage and no fluorescent increase is observed.
The PED6 assay was run as an […] 10 μL assay. Compounds source plate was prepared by making 1:3 (by volume) serial dilution of the compounds into pure DMSO on 384-well microplate. Then, 0.01 μL of compounds on compound source plate were transferred into 384 well Greiner 784076 (black) plates by ECHO liquid dispenser. 5 μL of recombinant human Lp-PLA2 enzyme (2 nM rhLp-PLA2 in assay buffer of 50 mM HEPES, pH7.4, 150 mM NaCl, 1 mM CHAPS) was added to each well of the plate with compounds. Plates were centrifuged for 10 sec at 500 rpm. After 30 minutes preincubation, […] substrate (4 μM PED6 [from 5 mM DMSO stock] in assay buffer of 50 mM HEPES, pH7.4, 150 mM NaCl, 1 mM CHAPS) was added to 384 well Greiner 784076 (black) plates. Plates were centrifuged for 10 sec at 500 rpm. Plate was covered to protect from light and incubated for 20 min at room temperature. Plates were read for fluorescence intensity at ex: 480/em: 540 using ViewLux microplate imager. PIC50 data, curve and QC analysis was conducted by using XL fit module in Excel.

Experiment [2] has as its target T2, Lp-PLA2 from plasma (Homo sapiens, UniProt Q13093).
T2 construct: from tissue; host or cells: pooled human plasma
T2 sequence (Q13093 22-441): T1 sequence (Q13093 22-441)
The experiment is described as follows: Lp-PLA2 human plasma assay (Thio-PAF assay). Format: biochemical. Conditions: pooled human plasma; read-out: pIC50 values in the thio-PAF assay (converted). The text has this:
(3) Lipoprotein-Associated Phospholipase A2 (Lp-PLA2) Human Plasma Assay (Also Referred to as “Thio-PAF Assay”)
The human plasma assay utilizes a thioester analog of PAF (phosphatidylcholine), where hydrolysis yields to the formation of a phospholipid containing a free thiol group. The amount of thiol is quantitated continuously by reacting with CPM (7-diethylamino-3-(4′-maleimidylphenyl)-4-methylcoumarin), a maleimide which increases in fluoresence after Michael addition of thiols. This assay may detect the activity of Lp-PLA2 from plasma, as determined by specific inhibition by Lp-PLA2 inhibitors.
The thio-PAF assay was run as a quenched 15 μL assay. Compounds source plate was prepared by making 1:3 (by volume) serial dilution of the compounds into pure DMSO on 384-well microplate. 0.01 μL of compounds on compound source plate were transferred to 384 well Greiner 784076 (black) low-volume plates by ECHO liquid dispenser. 8 μL pooled human plasma, which was previously aliquoted and frozen, was added. Plates were centrifuged for 10 sec at 500 rpm. After 30 minutes preincubation, 2 μL of substrate (2.5 mM thio-PAF, 3.2 mM NEM (N-ethylmaleimide) [made fresh daily in DMSO], and 32 μM CPM [from a DMSO stock] in assay buffer of 50 mM HEPES, pH7.4, 150 mM NaCl, 1 mM CHAPS was added to 384 well Greiner 784076 (black) low-volume plates by BRAVO liquid handling station. Plates were centrifuged for 10 sec at 500 rpm. Plate was covered to protect from light and incubated for 2 min at room temperature. Reaction was quenched with 5 μL of 5% aqueous trifluoroacetic acid (TFA). Plates were covered to protect from light and incubated for 40 min at room temperature. Plates were read at ex: 380/em: 485 using-Envision microplate reader. PIC50 data, curve and QC analysis was conducted by using XLFit module in Excel.

SMILES strings stand for the structures. Counter-ions that a name gives are not always drawn. A value given as a limit tells only on which side of the number the result lay.

Take `CCn1ccc(OCc2ccc(Oc3ccc(Cl)c(C(F)(F)F)c3)c(C#N)c2)nc1=O` [Example 5, 2-{[4-Chloro-3-(trifluoromethyl)phenyl]oxy}-5-{[(1-ethyl-2-oxo-1,2-dihydro-4-pyrimidinyl)oxy]methyl}benzonitrile]: the IC50 in experiment [1] was no more than 1 nM; in experiment [2] it was no more than 1000 nM. Regarding `Cn1cc(Cn2ccc(OCc3ccc(Oc4ccc(Cl)c(C(F)(F)F)c4)cc3)nc2=O)cn1` [Example 8, 4-{[(4-{[4-Chloro-3-(trifluoromethyl)phenyl]oxy}phenyl)methyl]oxy}-1-[(1-methyl-1H-pyrazol-4-yl)methyl]-2(1H)-pyrimidinone], the IC50 is no more than 1 nM in experiment [1] and no more than 100 nM in experiment [2].

As for `Cn1cc(Cn2cc(Cl)c(OCCc3cnc(Oc4ccc(Cl)c(C(F)(F)F)c4)c(F)c3)nc2=O)cn1` [Example 31, 5-Chloro-4-(2-(6-(4-chloro-3-(trifluoromethyl)phenoxy)-5-fluoropyridin-3-yl)ethoxy)-1-((1-methyl-1H-pyrazol-4-yl)methyl)pyrimidin-2(1H)-one], the IC50 in experiment [1] was no more than 1 nM; in experiment [2] it was no more than 100 nM. As for `O=c1nc(OCCc2ccc(Oc3ccc(Cl)c(C(F)(F)F)c3)cc2)ccn1Cc1cccnc1` [Example 10, 4-{[2-(4-{[4-Chloro-3-(trifluoromethyl)phenyl]oxy}phenyl)ethyl]oxy}-1-(3-pyridinylmethyl)-2(1H)-pyrimidinone], the IC50 was no more than 1 nM in experiment [1] and no more than 100 nM in experiment [2].

As for `CCn1cc(F)c(OCCc2ccc(Oc3cccc(C(F)(F)F)n3)cc2)nc1=O` [Example 63, 1-ethyl-5-fluoro-4-(4-((6-(trifluoromethyl)pyridin-2-yl)oxy)phenethoxy)pyrimidin-2(1H)-one, trifluoroacetic acid salt], in experiment [1], the IC50 was greater than 10 nM.

For `Cn1cc(Cn2cc(F)c(OCCc3ccc(Cc4ccc(Cl)c(C(F)(F)F)c4)cc3)nc2=O)cn1` [Example 46, 4-(4-(4-chloro-3-(trifluoromethyl)benzyl)phenethoxy)-5-fluoro-1-((1-methyl-1H-pyrazol-4-yl)methyl)pyrimidin-2(1H)-one], the figures for the IC50 in experiment [1] and in experiment [2] were no more than 1 nM and no more than 100 nM, respectively. The like results for `COc1ncc(Cn2cc(F)c(OCCc3ccc(Cc4ccc(Cl)c(C(F)(F)F)c4)cc3)nc2=O)cn1` [Example 47, 4-(4-(4-chloro-3-(trifluoromethyl)benzyl)phenethoxy)-5-fluoro-1-((2-methoxypyrimidin-5-yl)methyl)pyrimidin-2(1H)-one] were, in that order, no more than 1 nM and no more than 100 nM. The like results for `Cn1cc(Cn2cc(Cl)c(OCc3ccc(Oc4ccc(F)c(F)c4)c(F)c3)nc2=O)cn1` [Example 53, 5-chloro-4-((4-(3,4-difluorophenoxy)-3-fluorobenzyl)oxy)-1-((1-methyl-1H-pyrazol-4-yl)methyl)pyrimidin-2 (1H)-one] were, in that order, no more than 1 nM and no more than 100 nM. As for `COc1ncc(Cn2cc(F)c(OCCc3ccc(Oc4cccc(C)n4)cc3)nc2=O)cn1` [Example 62, 5-fluoro-1-((2-methoxypyrimidin-5-yl)methyl)-4-(4-((6-methylpyridin-2-yl)oxy)phenethoxy)pyrimidin-2(1H)-one], the IC50 in experiment [1] was greater than 10 nM. Same read-out and setting: to `Cn1cc(Cn2ccc(OCc3ccc(Oc4cccc(C(F)(F)F)c4)cc3)cc2=O)cn1` [Example 25, 1-[(1-Methyl-1H-pyrazol-4-yl)methyl]-4-{[(4-{[3-(trifluoromethyl)phenyl]oxy}-phenyl)methyl]oxy}-2(1H)-pyridinone] belongs greater than 10 nM.

For the compound `Cc1ccc(Oc2ccc(COc3ccn(Cc4cnn(C)c4)c(=O)c3)cc2)cc1F` [Example 28, 4-[({4-[(3-Fluoro-4-methylphenyl)oxy]phenyl}methyl)oxy]-1-[(1-methyl-1H-pyrazol-4-yl)methyl]-2(1H)-pyridinone], the IC50 in experiment [1] was greater than 10 nM.

In the case of `Cc1cccc(Oc2ccc(CCOc3nc(=O)n(Cc4cnn(C)c4)cc3F)cc2)n1` [Example 61, 5-fluoro-1-((1-methyl-1H-pyrazol-4-yl)methyl)-4-(4-((6-methylpyridin-2-yl)oxy)phenethoxy)pyrimidin-2(1H)-one], in experiment [1], the IC50 is greater than 10 nM. As for `Cn1cc(Cn2cc(F)c(OCCc3ccc(Oc4ccc(Cl)c(C(F)(F)F)c4)nc3)nc2=O)cn1` [Example 40, 4-(2-(6-(4-chloro-3-(trifluoromethyl)phenoxy)pyridin-3-yl)ethoxy)-5-fluoro-1-((1-methyl-1H-pyrazol-4-yl)methyl)pyrimidin-2(1H)-one], the IC50 in experiment [2] was no more than 100 nM. Same read-out and setting: to `Cn1cc(Cn2ccc(OCCc3ccc(Oc4ccc(Cl)c(C(F)(F)F)c4)cn3)nc2=O)cn1` [Example 16, 4-{[2-(5-{[4-Chloro-3-(trifluoromethyl)phenyl]oxy}-2-pyridinyl)ethyl]oxy}-1-[(1-methyl-1H-pyrazol-4-yl)methyl]-2(1H)-pyrimidinone] belongs no more than 100 nM; to `O=c1nc(OCc2ccc(Oc3ccc(Cl)c(C(F)(F)F)c3)cn2)ccn1Cc1cccnc1` [Example 14, 4{[(5-{[4-Chloro-3-(trifluoromethyl)phenyl]oxy}-2-pyridinyl)methyl]oxy}-1-(3-pyridinylmethyl)-2(1H)-pyrimidinone], no more than 100 nM; to `O=c1nc(OCCc2ccc(Oc3ccc(Cl)c(C(F)(F)F)c3)cc2)ccn1CCc1cccnc1` [Example 13, 4-{[2-(4-{[4-Chloro-3-(trifluoromethyl)phenyl]oxy}phenyl)ethyl]oxy}-1-[2-(3-pyridinyl)ethyl]-2 (1H)-pyrimidinone trifluoroacetate], no more than 1000 nM. For `N#Cc1cc(COc2cc[nH]c(=O)n2)ccc1Oc1ccc(Cl)c(C(F)(F)F)c1` [Example 3, 2-(4-Chloro-3-(trifluoromethyl)phenoxy)-5-(((2-oxo-2,3-dihydropyrimidin-4-yl)oxy)methyl)benzonitrile], the IC50 in experiment [2] is greater than 10000 nM.

As to `O=c1cc(OCc2ccc(Oc3ccc(Cl)c(C(F)(F)F)c3)cc2)ccn1Cc1cncnc1` [Example 26, 4-{[(4-{[4-Chloro-3-(trifluoromethyl)phenyl]oxy}phenyl)methyl]oxy}-1-(5-pyrimidinylmethyl)-2(1H)-pyridinone], in experiment [1], the IC50 was greater than 10 nM. As to `COc1ncc(Cn2cc(F)c(OCCc3cnc(Oc4ccc(F)c(C(F)(F)F)c4)c(F)c3)nc2=O)cn1` [Example 43, 5-fluoro-4-(2-(5-fluoro-6-(4-fluoro-3-(trifluoromethyl)phenoxy)pyridin-3-yl)ethoxy)-1-((2-methoxypyrimidin-5-yl)methyl)pyrimidin-2(1H)-one], in experiment [2], the IC50 is no more than 100 nM.

Consider `Cn1cc(Cn2cc(Cl)c(OCCc3cnc(Oc4ccc(F)c(C(F)(F)F)c4)c(F)c3)nc2=O)cn1` [Example 38, 5-chloro-4-(2-(5-fluoro-6-(4-fluoro-3-(trifluoromethyl)phenoxy)pyridin-3-yl)ethoxy)-1-((1-methyl-1H-pyrazol-4-yl)methyl)pyrimidin-2(1H)-one], for which the IC50 in experiment [2] is no more than 100 nM.
